Source: article PMC5820243, “Two inhibitors of yeast plasma membrane ATPase 1 (ScPma1p): toward the development of novel antifungal therapies” (Journal of Cheminformatics, 2018)

Molecular target: T1, ScPma1p (yeast plasma membrane ATPase 1) (Saccharomyces cerevisiae, UniProt P05030)
T1 construct: gene PMA1
Experiment: cell-free vesicle-based ATP hydrolysis assay (ScPma1p-overexpressing vesicles, phosphate release)
Assay type: biochemical

T1 sequence (P05030 whole entry): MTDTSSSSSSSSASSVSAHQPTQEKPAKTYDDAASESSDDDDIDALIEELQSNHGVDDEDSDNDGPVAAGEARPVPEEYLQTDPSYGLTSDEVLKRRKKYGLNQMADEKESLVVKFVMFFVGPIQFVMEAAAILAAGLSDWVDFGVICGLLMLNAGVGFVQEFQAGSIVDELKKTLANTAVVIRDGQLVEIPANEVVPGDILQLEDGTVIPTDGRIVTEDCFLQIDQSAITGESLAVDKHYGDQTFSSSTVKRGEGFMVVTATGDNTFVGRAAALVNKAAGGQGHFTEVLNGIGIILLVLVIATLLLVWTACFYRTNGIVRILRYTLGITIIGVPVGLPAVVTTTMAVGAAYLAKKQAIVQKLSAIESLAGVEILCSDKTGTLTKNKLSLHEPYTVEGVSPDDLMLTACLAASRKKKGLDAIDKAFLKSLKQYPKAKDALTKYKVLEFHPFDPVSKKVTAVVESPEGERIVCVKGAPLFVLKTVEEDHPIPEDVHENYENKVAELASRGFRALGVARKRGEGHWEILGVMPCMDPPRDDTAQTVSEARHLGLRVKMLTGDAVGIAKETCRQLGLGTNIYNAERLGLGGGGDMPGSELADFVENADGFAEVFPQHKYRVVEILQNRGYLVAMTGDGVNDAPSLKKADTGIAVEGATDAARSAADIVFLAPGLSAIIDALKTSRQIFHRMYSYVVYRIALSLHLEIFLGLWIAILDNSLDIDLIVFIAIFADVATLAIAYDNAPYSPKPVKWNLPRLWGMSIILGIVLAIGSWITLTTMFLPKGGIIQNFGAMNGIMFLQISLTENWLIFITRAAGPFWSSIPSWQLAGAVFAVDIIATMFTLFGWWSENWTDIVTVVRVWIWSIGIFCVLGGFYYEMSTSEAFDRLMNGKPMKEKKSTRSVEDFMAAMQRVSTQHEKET

SMILES: Cn1ncc2c(Nc3cccc(Cl)c3)nc(Nc3cccc(Cl)c3)nc21 [NSC11668, 4-N,6-N-bis(3-chlorophenyl)-1-methylpyrazolo[3,4-d]pyrimidine-4,6-diamine]
- IC50: 4.4 µM
